{"source": "PubChem BioAssay AID1845201", "about": "(Molecular Pharmacology Branch, DTP, NCI, 2023)", "tested_on": "COR L88 complex tumor spheroid viability", "test": "Anticancer human tumor COR L88 cell line growth inhibition;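 for all read-outs here: compound exposure lasted 7 days before viability readout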;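 for viability, T/C: percent of DMSO vehicle-treated spheroids = 100%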", "settings": "for IC50: curve of first compound; for viability, T/C: stronger effect = lower value", "method_in_brief": "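Complex spheroids of malignant cells with endothelial cells and mesenchymal stem cells; agents alone or combined, from near clinical Cmax (or 10 microM if unknown) down in half-log steps, 0.25% DMSO final.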", "key": {"[1]": {"settings": "second compound 1 µM, first compound 0.0316 µM"}, "[2]": {"settings": "second compound 1 µM, first compound 0.1 µM"}, "[3]": {"settings": "second compound 1 µM, first compound 0.316 µM"}, "[4]": {"settings": "second compound 1 µM, first compound 1 µM"}, "[5]": {"settings": "second compound 1 µM, first compound 3.16 µM"}, "[6]": {"settings": "second compound 1 µM, first compound 10 µM"}, "[7]": {"settings": "second compound 3.16 µM, first compound 0.0316 µM"}, "[8]": {"settings": "second compound 3.16 µM, first compound 0.1 µM"}, "[9]": {"settings": "second compound 3.16 µM, first compound 0.316 µM"}, "[10]": {"settings": "second compound 3.16 µM, first compound 1 µM"}, "[11]": {"settings": "second compound 3.16 µM, first compound 3.16 µM"}, "[12]": {"settings": "second compound 3.16 µM, first compound 10 µM"}, "[13]": {"settings": "second compound 10 µM, first compound 0.0316 µM"}, "[14]": {"settings": "second compound 10 µM, first compound 0.1 µM"}, "[15]": {"settings": "second compound 10 µM, first compound 0.316 µM"}, "[16]": {"settings": "second compound 10 µM, first compound 1 µM"}, "[17]": {"settings": "second compound 10 µM, first compound 3.16 µM"}, "[18]": {"settings": "second compound 10 µM, first compound 10 µM"}, "[19]": {"settings": "second compound 31.6 µM, first compound 0.0316 µM"}, "[20]": {"settings": "second compound 31.6 µM, first compound 0.1 µM"}, "[21]": {"settings": "second compound 31.6 µM, first compound 0.316 µM"}, "[22]": {"settings": "second compound 31.6 µM, first compound 1 µM"}, "[23]": {"settings": "second compound 31.6 µM, first compound 3.16 µM"}, "[24]": {"settings": "second compound 31.6 µM, first compound 10 µM"}, "[25]": {"settings": "second compound 100 µM, first compound 0.0316 µM"}, "[26]": {"settings": "second compound 100 µM, first compound 0.1 µM"}, "[27]": {"settings": "second compound 100 µM, first compound 0.316 µM"}, "[28]": {"settings": "second compound 100 µM, first compound 1 µM"}, "[29]": {"settings": "second compound 100 µM, first compound 3.16 µM"}, "[30]": {"settings": "second compound 100 µM, first compound 10 µM"}}, "data": [{"smiles": "COc1ccc([C@@H](O)c2cc(-c3ncnc4cc(N5CCOCC5)ccc34)c(F)cc2Cl)nn1", "note": "+ Cn1nnc2c(C(N)=O)ncn2c1=O", "values": [{"measurement": "IC50", "setting": "second compound 1 µM", "result": 5.38, "unit": "µM"}, {"measurement": "IC50", "setting": "second compound 3.16 µM", "result": 8.27, "unit": "µM"}, {"measurement": "IC50", "setting": "second compound 10 µM", "result": "> 10", "unit": "µM"}, {"measurement": "IC50", "setting": "second compound 31.6 µM", "result": "> 10", "unit": "µM"}, {"measurement": "IC50", "setting": "second compound 100 µM", "result": "> 10", "unit": "µM"}, {"measurement": "viability, T/C", "setting": "[1]", "result": 96.4, "unit": "%"}, {"measurement": "viability, T/C", "setting": "[2]", "result": 94.1, "unit": "%"}, {"measurement": "viability, T/C", "setting": "[3]", "result": 82, "unit": "%"}, {"measurement": "viability, T/C", "setting": "[4]", "result": 78.3, "unit": "%"}, {"measurement": "viability, T/C", "setting": "[5]", "result": 61.4, "unit": "%"}, {"measurement": "viability, T/C", "setting": "[6]", "result": 36.7, "unit": "%"}, {"measurement": "viability, T/C", "setting": "[7]", "result": 92.8, "unit": "%"}, {"measurement": "viability, T/C", "setting": "[8]", "result": 104, "unit": "%"}, {"measurement": "viability, T/C", "setting": "[9]", "result": 90.9, "unit": "%"}, {"measurement": "viability, T/C", "setting": "[10]", "result": 88.2, "unit": "%"}, {"measurement": "viability, T/C", "setting": "[11]", "result": 64.3, "unit": "%"}, {"measurement": "viability, T/C", "setting": "[12]", "result": 47.2, "unit": "%"}, {"measurement": "viability, T/C", "setting": "[13]", "result": 87, "unit": "%"}, {"measurement": "viability, T/C", "setting": "[14]", "result": 98.7, "unit": "%"}, {"measurement": "viability, T/C", "setting": "[15]", "result": 92, "unit": "%"}, {"measurement": "viability, T/C", "setting": "[16]", "result": 75.1, "unit": "%"}, {"measurement": "viability, T/C", "setting": "[17]", "result": 67.9, "unit": "%"}, {"measurement": "viability, T/C", "setting": "[18]", "result": 54.6, "unit": "%"}, {"measurement": "viability, T/C", "setting": "[19]", "result": 89.3, "unit": "%"}, {"measurement": "viability, T/C", "setting": "[20]", "result": 79.9, "unit": "%"}, {"measurement": "viability, T/C", "setting": "[21]", "result": 84.6, "unit": "%"}, {"measurement": "viability, T/C", "setting": "[22]", "result": 73.9, "unit": "%"}, {"measurement": "viability, T/C", "setting": "[23]", "result": 67.2, "unit": "%"}, {"measurement": "viability, T/C", "setting": "[24]", "result": 51.3, "unit": "%"}, {"measurement": "viability, T/C", "setting": "[25]", "result": 69.9, "unit": "%"}, {"measurement": "viability, T/C", "setting": "[26]", "result": 70.8, "unit": "%"}, {"measurement": "viability, T/C", "setting": "[27]", "result": 68, "unit": "%"}, {"measurement": "viability, T/C", "setting": "[28]", "result": 62.5, "unit": "%"}, {"measurement": "viability, T/C", "setting": "[29]", "result": 58.1, "unit": "%"}, {"measurement": "viability, T/C", "setting": "[30]", "result": 55.4, "unit": "%"}]}, {"smiles": "COc1cc(C)[nH]c(=O)c1CN1CCc2c(Cl)cc(C(OC)C3COC3)c(Cl)c2C1=O", "note": "(stereo not given) + Cn1nnc2c(C(N)=O)ncn2c1=O", "values": [{"measurement": "IC50", "setting": "second compound 1 µM", "result": "> 10", "unit": "µM"}, {"measurement": "IC50", "setting": "second compound 3.16 µM", "result": "> 10", "unit": "µM"}, {"measurement": "IC50", "setting": "second compound 10 µM", "result": 0.549, "unit": "µM"}, {"measurement": "IC50", "setting": "second compound 31.6 µM", "result": 0.111, "unit": "µM"}, {"measurement": "IC50", "setting": "second compound 100 µM", "result": "< 0.0316", "unit": "µM"}, {"measurement": "viability, T/C", "setting": "[1]", "result": 76.1, "unit": "%"}, {"measurement": "viability, T/C", "setting": "[2]", "result": 75, "unit": "%"}, {"measurement": "viability, T/C", "setting": "[3]", "result": 71.3, "unit": "%"}, {"measurement": "viability, T/C", "setting": "[4]", "result": 65.9, "unit": "%"}, {"measurement": "viability, T/C", "setting": "[5]", "result": 67.5, "unit": "%"}, {"measurement": "viability, T/C", "setting": "[6]", "result": 66.6, "unit": "%"}, {"measurement": "viability, T/C", "setting": "[7]", "result": 74, "unit": "%"}, {"measurement": "viability, T/C", "setting": "[8]", "result": 74.8, "unit": "%"}, {"measurement": "viability, T/C", "setting": "[9]", "result": 63.4, "unit": "%"}, {"measurement": "viability, T/C", "setting": "[10]", "result": 71.6, "unit": "%"}, {"measurement": "viability, T/C", "setting": "[11]", "result": 69.7, "unit": "%"}, {"measurement": "viability, T/C", "setting": "[12]", "result": 68.7, "unit": "%"}, {"measurement": "viability, T/C", "setting": "[13]", "result": 62.7, "unit": "%"}, {"measurement": "viability, T/C", "setting": "[14]", "result": 57.4, "unit": "%"}, {"measurement": "viability, T/C", "setting": "[15]", "result": 48.8, "unit": "%"}, {"measurement": "viability, T/C", "setting": "[16]", "result": 50.3, "unit": "%"}, {"measurement": "viability, T/C", "setting": "[17]", "result": 46.6, "unit": "%"}, {"measurement": "viability, T/C", "setting": "[18]", "result": 43.2, "unit": "%"}, {"measurement": "viability, T/C", "setting": "[19]", "result": 55.5, "unit": "%"}, {"measurement": "viability, T/C", "setting": "[20]", "result": 51.5, "unit": "%"}, {"measurement": "viability, T/C", "setting": "[21]", "result": 39.7, "unit": "%"}, {"measurement": "viability, T/C", "setting": "[22]", "result": 37, "unit": "%"}, {"measurement": "viability, T/C", "setting": "[23]", "result": 33.3, "unit": "%"}, {"measurement": "viability, T/C", "setting": "[24]", "result": 33.6, "unit": "%"}, {"measurement": "viability, T/C", "setting": "[25]", "result": 49, "unit": "%"}, {"measurement": "viability, T/C", "setting": "[26]", "result": 43.5, "unit": "%"}, {"measurement": "viability, T/C", "setting": "[27]", "result": 37.2, "unit": "%"}, {"measurement": "viability, T/C", "setting": "[28]", "result": 35.3, "unit": "%"}, {"measurement": "viability, T/C", "setting": "[29]", "result": 33.3, "unit": "%"}, {"measurement": "viability, T/C", "setting": "[30]", "result": 31.6, "unit": "%"}]}]}
